In ChEMBL document CHEMBL4325848, “Quinoline and quinolone dimers and their biological activities: An overview” (Eur J Med Chem, 2019):
≈ marks a conversion by molar mass, not a printed value. Values belong to the compound of their own block, whether it stands above or below them.

Assays:
[1] = tested on: Plasmodium falciparum; assay: Antiprotozoal activity against chloroquine-resistant Plasmodium falciparum W2; type: functional, organism-based
[2] = tested on: Plasmodium falciparum; assay: Antiprotozoal activity against chloroquine-sensitive Plasmodium falciparum D6; type: functional, organism-based
[3] = tested on: Plasmodium falciparum; assay: Antimalarial activity against chloroquine-resistant Plasmodium falciparum K1; type: functional, organism-based
[4] = tested on: Plasmodium falciparum; assay: Antimalarial activity against chloroquine-sensitive Plasmodium falciparum 3D7; type: functional, organism-based
[5] = tested on: Plasmodium berghei; assay: Antimalarial activity against Plasmodium berghei N/13 infected in MF1 mouse; type: functional; conditions: read-out: ID50 (the source's name)
[6] = tested on: Plasmodium vinckei; assay: Antimalarial activity against Plasmodium vinckei infected in ip dosed mouse; type: functional
[7] = tested on: HL-60; assay: Antiproliferative activity against human HL60 cells; type: functional, cell-based
[8] = tested on: Shigella; assay: Antibacterial activity against Shigella; type: functional
[9] = tested on: Staphylococcus aureus; assay: Antibacterial activity against Staphylococcus aureus; type: functional
[10] = tested on: Klebsiella pneumoniae; assay: Antibacterial activity against Klebsiella pneumoniae; type: functional
[11] = tested on: Escherichia coli; assay: Antibacterial activity against Escherichia coli; type: functional
[12] = tested on: Enterococcus; assay: Antibacterial activity against Enterococcus; type: functional
[13] = tested on: Proteus; assay: Antibacterial activity against Proteus; type: functional
[14] = tested on: Plasmodium falciparum; assay: Antimalarial activity against chloroquine-sensitive Plasmodium falciparum D10; type: functional, organism-based
[15] = tested on: Plasmodium falciparum; assay: Antimalarial activity against pfmdr1-overexpressing chloroquine-resistant Plasmodium falciparum K1mef; type: functional, organism-based; conditions: K1 mef
[16] = tested on: Plasmodium falciparum; assay: Potency index, ratio of chloroquine IC50 to compound IC50 for antimalarial activity against chloroquine-resistant Plasmodium falciparum K1; type: functional
[17] = target: Histone-lysine N-methyltransferase, H3 lysine-79 specific (Homo sapiens, UniProt Q8TEK3); assay: Inhibition of DOT1L (unknown origin)
Chain of Histone-lysine N-methyltransferase, H3 lysine-79 specific (Q8TEK3 whole entry): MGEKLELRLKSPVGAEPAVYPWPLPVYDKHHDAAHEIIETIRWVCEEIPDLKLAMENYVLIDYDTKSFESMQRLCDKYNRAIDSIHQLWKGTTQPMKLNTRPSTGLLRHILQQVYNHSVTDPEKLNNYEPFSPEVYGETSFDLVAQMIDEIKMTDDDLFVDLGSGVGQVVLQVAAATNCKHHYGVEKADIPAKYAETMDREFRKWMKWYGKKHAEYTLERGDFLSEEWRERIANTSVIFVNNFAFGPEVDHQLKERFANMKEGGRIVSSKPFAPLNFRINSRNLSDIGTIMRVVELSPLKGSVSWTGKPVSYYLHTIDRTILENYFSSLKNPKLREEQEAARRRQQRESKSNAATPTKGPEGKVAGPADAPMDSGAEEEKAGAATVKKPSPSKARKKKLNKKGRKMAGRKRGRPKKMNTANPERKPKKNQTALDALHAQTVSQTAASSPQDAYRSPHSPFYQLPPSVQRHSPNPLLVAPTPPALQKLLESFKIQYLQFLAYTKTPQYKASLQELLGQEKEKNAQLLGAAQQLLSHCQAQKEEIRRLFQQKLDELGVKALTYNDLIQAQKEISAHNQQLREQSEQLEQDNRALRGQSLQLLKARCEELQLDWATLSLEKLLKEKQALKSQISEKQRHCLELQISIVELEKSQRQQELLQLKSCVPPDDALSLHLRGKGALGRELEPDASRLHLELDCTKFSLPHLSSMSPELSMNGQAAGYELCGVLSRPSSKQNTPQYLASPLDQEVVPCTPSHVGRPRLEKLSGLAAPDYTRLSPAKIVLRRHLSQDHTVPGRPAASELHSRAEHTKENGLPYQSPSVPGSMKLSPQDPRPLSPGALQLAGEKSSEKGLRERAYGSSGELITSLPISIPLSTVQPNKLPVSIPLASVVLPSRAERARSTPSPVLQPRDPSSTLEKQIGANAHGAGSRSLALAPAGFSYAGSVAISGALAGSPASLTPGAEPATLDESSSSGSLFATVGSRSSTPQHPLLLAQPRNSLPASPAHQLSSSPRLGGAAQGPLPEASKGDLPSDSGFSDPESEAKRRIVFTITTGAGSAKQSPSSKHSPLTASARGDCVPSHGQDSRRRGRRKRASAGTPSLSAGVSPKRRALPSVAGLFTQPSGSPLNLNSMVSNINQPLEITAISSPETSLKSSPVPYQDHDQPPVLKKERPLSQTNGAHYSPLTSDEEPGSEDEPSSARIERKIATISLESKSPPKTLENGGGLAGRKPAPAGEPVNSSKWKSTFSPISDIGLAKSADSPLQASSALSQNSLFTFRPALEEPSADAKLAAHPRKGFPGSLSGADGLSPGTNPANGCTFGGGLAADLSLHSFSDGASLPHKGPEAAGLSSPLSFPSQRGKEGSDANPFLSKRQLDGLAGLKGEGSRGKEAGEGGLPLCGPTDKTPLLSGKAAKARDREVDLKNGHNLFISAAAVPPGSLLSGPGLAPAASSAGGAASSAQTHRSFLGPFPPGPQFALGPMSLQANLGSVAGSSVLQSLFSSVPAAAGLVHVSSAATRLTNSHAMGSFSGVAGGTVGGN

[18] = tested on: MV4-11; assay: Antiproliferative activity against human MV4-11 cells; type: functional, cell-based
[19] = tested on: Kasumi 1; assay: Antiproliferative activity against human Kasumi-1 cells; type: functional, cell-based
[20] = tested on: Staphylococcus aureus; assay: Antibacterial activity against Staphylococcus aureus 1199B; type: functional
[21] = tested on: Staphylococcus aureus; assay: Antibacterial activity against Staphylococcus aureus 1199; type: functional
[22] = tested on: Staphylococcus aureus; assay: Antibacterial activity against Staphylococcus aureus 1199-3; type: functional
[23] = tested on: Staphylococcus aureus; assay: Antibacterial activity against glycopeptide-intermediate Staphylococcus aureus; type: functional
[24] = tested on: MDA-MB-468; assay: Antiproliferative activity against human MDA-MB-468 cells; type: functional
[25] = tested on: MCF7; assay: Antiproliferative activity against human MCF7 cells; type: functional
[26] = Selectivity index, ratio of CC50 for human MRC5 cells to IC50 for chloroquine-resistant Plasmodium falciparum FcB1; type: toxicity; conditions: read-out: Ratio CC50/IC50
[27] = tested on: Plasmodium falciparum; assay: Antimalarial activity against chloroquine-resistant Plasmodium falciparum FcB1; type: functional, organism-based; conditions: FcB1/Columbia
[28] = Cytotoxicity against human MRC5 cells; type: cell-based
[29] = tested on: Escherichia coli; assay: Antibacterial activity against Escherichia coli ATCC 8739 assessed as zone of inhibition at 50 ug/disc; type: functional; conditions: read-out: DIZ
[30] = tested on: Staphylococcus aureus; assay: Antibacterial activity against Staphylococcus aureus ATCC 6538 assessed as zone of inhibition at 100 ug/disc; type: functional; conditions: read-out: DIZ

SMILES: CN(CCCNc1ccnc2cc(Cl)ccc12)CCCNc1ccnc2cc(Cl)ccc12
- IC50 [1]: 1.2 to 89 nM
- IC50 [2]: 1.2 to 89 nM

SMILES: Clc1ccc2c(NCCCOCCOCCOCCCNc3ccnc4cc(Cl)ccc34)ccnc2c1
- IC50 [1]: 1.2 to 89 nM
- IC50 [2]: 1.2 to 89 nM

SMILES: CCC(C)[C@H](Nc1ccnc2cc(Cl)ccc12)C(=O)NCCNc1ccnc2cc(Cl)ccc12 (stereo not given in full)
- IC50 [3]: 26 nM
- IC50 [4]: 24 nM

SMILES: FC(F)(F)c1ccc2c(N[C@@H]3CCCC[C@H]3Nc3ccnc4cc(C(F)(F)F)ccc34)ccnc2c1
- ED50 [5]: 5.9 mg/kg

SMILES: c1ccc2c(c1)nc(NCCCN1CCN(CCCNc3nc4ccccc4c4sccc34)CC1)c1ccsc12
- ED50 [6]: 30 mg/kg

- IC50 [7]: 120 nM
SMILES: C[C@H]1COc2c(N3CCN(C)CC3)c(F)cc3c(=O)c(-c4nn5c(-c6cn(C7CC7)c7cc(N8CCNCC8)c(F)cc7c6=O)nnc5s4)cn1c23

- MIC [8]: 0.25 to 2 µg/mL (≈ 0.323 to 2.58 µM)
- MIC [9]: 0.25 to 2 µg/mL (≈ 0.323 to 2.58 µM)
- MIC [10]: 0.25 to 2 µg/mL (≈ 0.323 to 2.58 µM)
- MIC [11]: 0.25 to 2 µg/mL (≈ 0.323 to 2.58 µM)
- MIC [12]: 0.25 to 2 µg/mL (≈ 0.323 to 2.58 µM)
- MIC [13]: 0.25 to 2 µg/mL (≈ 0.323 to 2.58 µM)
SMILES: O=C(O)c1cn(C2CC2)c2cc(N3CCN(c4nc(Cl)nc(N5CCN(c6cc7c(cc6F)c(=O)c(C(=O)O)cn7C6CC6)CC5)n4)CC3)c(F)cc2c1=O

SMILES: CCC1C[C@@H]2CC[C@H]1CC2C(O)c1ccnc2c(NC(=O)CCCCC(=O)Nc3cccc4c(C(O)C5C[C@@H]6CC[C@H]5C(CC)C6)ccnc34)cccc12 (stereo not given in full)
- IC50 [3]: 20 nM
- IC50 [14]: 50 nM
- IC50 [15]: 20 nM

- IC50 [7]: 540 nM
SMILES: CN1CCN(c2cc3c(cc2F)c(=O)c(-c2nn4c(-c5cn(C6CC6)c6cc(N7CCNCC7)c(F)cc6c5=O)nnc4s2)cn3C2CC2)CC1

SMILES: Clc1ccc2c(NCCOCCNc3ccnc4cc(Cl)ccc34)ccnc2c1
- IC50 [1]: 1.2 to 89 nM
- IC50 [2]: 1.2 to 89 nM

SMILES: CCN(CC)CCCC(C)Nc1cc(CCCCCCCCCCCCc2cc(NC(C)CCCN(CC)CC)c3ccccc3n2)nc2ccccc12 (stereo not given)
- Ratio IC50 [16]: 31.7

- IC50 [17]: 21700 nM
SMILES: COc1cc(C)nc2ccc(Nc3cc(C)nc(Nc4ccc5nc(C)cc(OC)c5c4)n3)cc12

- IC50 [18]: 30500 nM
- IC50 [17]: 1060 nM
SMILES: Cc1cc(N)c2cc(Nc3cc(Nc4ccc5nc(C)cc(N)c5c4)ncn3)ccc2n1
- IC50 [19]: 45800 nM

SMILES: CCn1cc(C(=O)O)c(=O)c2cc(F)c(N3CCNCC3)cc21 [NORFLOXACIN]
- MIC [20]: 0.125 to 16 µg/mL (≈ 0.391 to 50.1 µM)
- MIC [21]: 0.125 to 16 µg/mL (≈ 0.391 to 50.1 µM)
- MIC [22]: 0.125 to 16 µg/mL (≈ 0.391 to 50.1 µM)
- MIC [23]: > 16 µg/mL

- GI50 [24]: 7350 nM
- GI50 [25]: 14800 nM
SMILES: Clc1ccc2c(NCCNc3ccnc4cc(Cl)ccc34)ccnc2c1

SMILES: Clc1ccc2c(NCCOCCOCCNc3ccnc4cc(Cl)ccc34)ccnc2c1
- IC50 [1]: 1.2 to 89 nM
- IC50 [2]: 1.2 to 89 nM

- IC50 [17]: 1080 nM
SMILES: Cc1cc(N)c2cc(Nc3ccnc(Nc4ccc5nc(C)cc(N)c5c4)n3)ccc2n1

- MIC [8]: 0.25 to 2 µg/mL (≈ 0.274 to 2.19 µM)
- MIC [9]: 0.25 to 2 µg/mL (≈ 0.274 to 2.19 µM)
- MIC [10]: 0.25 to 2 µg/mL (≈ 0.274 to 2.19 µM)
- MIC [11]: 0.25 to 2 µg/mL (≈ 0.274 to 2.19 µM)
- MIC [12]: 0.25 to 2 µg/mL (≈ 0.274 to 2.19 µM)
- MIC [13]: 0.25 to 2 µg/mL (≈ 0.274 to 2.19 µM)
SMILES: O=C(O)c1cn(C2CC2)c2cc(N3CCN(c4nc(N5CCN(c6cc7c(cc6F)c(=O)c(C(=O)O)cn7C6CC6)CC5)c(F)c(S(=O)(=O)c5ccccc5)c4F)CC3)c(F)cc2c1=O

SMILES: Clc1ccc2c(N[C@@H]3CCCC[C@H]3Nc3ccnc4cc(Cl)ccc34)ccnc2c1 (relative stereo)
- ED50 [5]: 3 mg/kg
- IC50 [1]: 1.4 nM
- IC50 [2]: 1 nM

- MIC [20]: 0.125 to 16 µg/mL (≈ 0.412 to 52.7 µM)
- MIC [21]: 0.125 to 16 µg/mL (≈ 0.412 to 52.7 µM)
- MIC [22]: 0.125 to 16 µg/mL (≈ 0.412 to 52.7 µM)
- MIC [23]: > 16 µg/mL
SMILES: CCn1cc(C(=O)O)c(=O)c2cnc(N3CCNCC3)nc21 [PIPEMIDIC ACID]

- IC50 [17]: 4350 nM
SMILES: Cc1cc(Nc2ccc3nc(C)cc(O)c3c2)nc(Nc2ccc3nc(C)cc(O)c3c2)n1

SMILES: Clc1ccc2c(NCCCNCCNc3ccnc4cc(Cl)ccc34)ccnc2c1
- IC50 [1]: 1.2 to 89 nM
- IC50 [2]: 1.2 to 89 nM

SMILES: Clc1ccc2c(NCCCCCCNCCCCCCNc3ccnc4cc(Cl)ccc34)ccnc2c1
- IC50 [1]: 1.2 to 89 nM
- IC50 [2]: 1.2 to 89 nM

SMILES: Clc1ccc2c(NCCCN3CCN(CCCNCc4ccnc5ccccc45)CC3)ccnc2c1
- selectivity ratio [26]: 816
- IC50 [27]: 20.1 nM
- CC50 [28]: 16400 nM

SMILES: Clc1ccc2c(NCCCOCCCCOCCCNc3ccnc4cc(Cl)ccc34)ccnc2c1
- IC50 [1]: 1.2 to 89 nM
- IC50 [2]: 1.2 to 89 nM

- IC50 [17]: 1500 nM
SMILES: Cc1cc(Nc2ccc3nc(C)cc(N)c3c2)nc(Nc2ccc3nc(C)cc(N)c3c2)n1

- MIC [20]: 0.125 to 16 µg/mL (≈ 0.377 to 48.3 µM)
- MIC [21]: 0.125 to 16 µg/mL (≈ 0.377 to 48.3 µM)
- MIC [22]: 0.125 to 16 µg/mL (≈ 0.377 to 48.3 µM)
- MIC [23]: > 16 µg/mL
SMILES: O=C(O)c1cn(C2CC2)c2cc(N3CCNCC3)c(F)cc2c1=O [CIPROFLOXACIN]
- zone of inhibition at 50 µg/disc [29]: 36 mm
- zone of inhibition at 100 µg/disc [30]: 38 mm
